Assay results: patent US20250313563A1, “GLYCOGEN SYNTHASE KINASE 3 INHIBITORS AND USES THEREOF” (The Broad Institute, Inc., priority 2022, published 2025)
pIC50: −log10 of the molar value. Read-outs that look alike come from different tables or passages of the source.

How the values were obtained:
[1] = molecular target: GSK3α (GST-full length GSK3α) (Homo sapiens (Human), UniProt P49840); assay: GSK3α TR-FRET kinase assay; type: biochemical
In short: (§1)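 Compound preincubated 30 min, then 1 nM GST-full-length GSK3α or GSK3b run 100 min at ambient temperature with 200 nM biotinylated, S645-prephosphorylated glycogen synthase 631-650 peptide in Tris pH 7.5, MgCl2, DTT, BSA, 1% DMSO. ATP 4 μM (α) or 2 μM (β), or 1 mM. EDTA-quenched; Tb-anti-pSer641/streptavidin-d2 TR-FRET 665/615 ratio gave IC50.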

[2] = molecular target: GSK3b (GST-full length GSK3b) (Homo sapiens (Human), UniProt P49841); assay: GSK3b TR-FRET kinase assay; type: biochemical
In short: as §1

[3] = 1 nM GSK3α, 4 μM ATP, 30 minute preincubation, geometric mean, read-out: GSK3-A TR-FRET BIOCHEMICAL (TR-FRET), GMean, IC50
[4] = 1 nM GSK3b, 2 μM ATP, 30 minute preincubation, geometric mean, read-out: GSK3-B TR-FRET BIOCHEMICAL (TR-FRET), GMean, IC50
[5] = read-out: GSK3-A (TR-FRET 1 mM ATP), GMean, IC50, 1 mM ATP, geometric mean
[6] = read-out: GSK3-B (TR-FRET 1 mM ATP), GMean, IC50, 1 mM ATP, geometric mean
[7] = 1 nM GSK3α, 4 μM ATP, 30 minute preincubation, Table 16, read-out: GSK3-A TR-FRET BIOCHEMICAL (TR-FRET), IC50
[8] = 1 nM GSK3b, 2 μM ATP, 30 minute preincubation, Table 16, read-out: GSK3-B TR-FRET BIOCHEMICAL (TR-FRET), IC50
[9] = 1 nM GSK3α, 4 μM ATP, 30 minute preincubation, Table 16, read-out: GSK3-A TR-FRET BIOCHEMICAL (TR-FRET)
[10] = 1 nM GSK3b, 2 μM ATP, 30 minute preincubation, Table 16, read-out: GSK3-B TR-FRET BIOCHEMICAL (TR-FRET)

Sequence of GSK3b (GST-full length GSK3b) (P49841 whole entry): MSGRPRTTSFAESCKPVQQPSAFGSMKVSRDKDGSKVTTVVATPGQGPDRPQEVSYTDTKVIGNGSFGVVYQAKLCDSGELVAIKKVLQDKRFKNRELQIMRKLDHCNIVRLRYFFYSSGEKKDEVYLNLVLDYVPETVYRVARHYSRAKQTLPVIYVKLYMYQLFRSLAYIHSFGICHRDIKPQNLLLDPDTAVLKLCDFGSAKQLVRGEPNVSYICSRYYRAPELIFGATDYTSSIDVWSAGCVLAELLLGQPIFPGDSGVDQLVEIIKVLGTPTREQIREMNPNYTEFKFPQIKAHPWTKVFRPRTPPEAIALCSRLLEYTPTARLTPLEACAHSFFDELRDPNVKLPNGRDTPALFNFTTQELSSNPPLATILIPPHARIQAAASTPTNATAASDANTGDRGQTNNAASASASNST
Sequence of GSK3α (GST-full length GSK3α) (P49840 whole entry): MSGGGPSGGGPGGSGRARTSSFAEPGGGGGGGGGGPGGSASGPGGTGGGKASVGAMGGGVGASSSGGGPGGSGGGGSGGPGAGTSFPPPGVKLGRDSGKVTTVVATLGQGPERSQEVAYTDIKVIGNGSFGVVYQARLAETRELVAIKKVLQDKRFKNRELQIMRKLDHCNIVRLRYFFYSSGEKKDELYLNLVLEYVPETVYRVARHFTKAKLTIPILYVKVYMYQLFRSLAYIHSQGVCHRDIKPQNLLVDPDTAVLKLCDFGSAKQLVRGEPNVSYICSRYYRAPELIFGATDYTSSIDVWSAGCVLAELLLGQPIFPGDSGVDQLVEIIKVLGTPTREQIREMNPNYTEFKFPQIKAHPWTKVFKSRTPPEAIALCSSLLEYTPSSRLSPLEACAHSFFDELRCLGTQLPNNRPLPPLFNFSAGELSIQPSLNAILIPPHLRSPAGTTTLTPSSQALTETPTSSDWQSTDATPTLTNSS

| Compound | pIC50 [1, 7] | pIC50 [2, 8] | other results |
| --- | --- | --- | --- |
| CC[C@]1(c2cccc(N(C)c3ncccn3)c2)C2=C(CC(C)(C)NC2=O)Nc2n[nH]cc21 [Compound 949179] |  |  | pIC50 [1, 3]: 6.00 to 7.00; pIC50 [2, 4]: < 5.30 |
| CCC1(c2cccc(N(C)c3ncccn3)c2)C2=C(CC(C)(C)NC2=O)Nc2n[nH]c(C(F)(F)F)c21 (stereo not shown) [Compound 949181] |  |  | pIC50 [1, 5]: ≥ 7.00; pIC50 [2, 6]: 6.00 to 7.00 |
| CCC1(c2cccc(N(C)c3ncccn3)c2)C2=C(CC(C)(C)NC2=O)Nc2n[nH]c(C)c21 (stereo not shown) [Compound 949182] |  |  | pIC50 [1, 3]: ≥ 7.00; pIC50 [2, 4]: ≥ 7.00 |
| CCC1(c2cccc(N3CCCCC3)c2)C2=C(CC(C)(C)NC2=O)Nc2n[nH]c(C(F)(F)F)c21 (stereo not shown) [Compound 949183] |  |  | pIC50 [1, 3]: ≥ 7.00; pIC50 [1, 5]: ≥ 7.00; pIC50 [2, 4]: ≥ 7.00; pIC50 [2, 6]: 6.00 to 7.00 |
| CC[C@@]1(c2cccc(S(=O)(=O)C3CC3)c2)C2=C(CC(C)(C)N(C)C2=O)Nc2n[nH]cc21 [Compound 949184] | 5.30 to 6.00 | < 5.30 |  |
| CC[C@@]1(c2cccc(-c3cn(C)nc3C)c2)C2=C(CC(C)(C)NC2=O)Nc2n[nH]c(F)c21 [Compound 949185] | ≥ 7.00 | ≥ 7.00 | pIC50 [1, 5]: ≥ 7.00; pIC50 [2, 6]: 5.30 to 6.00 |
| CC[C@@]1(c2cccc(S(=O)(=O)CC3CC3)c2)C2=C(CC(C)(C)NC2=O)Nc2n[nH]c(C(F)(F)F)c21 [Compound 949186] | 6.00 to 7.00 | 6.00 to 7.00 |  |
| CCC1(c2cccc(C(F)(F)C(F)(F)F)c2)C2=C(CC(C)(C)CC2=O)Nc2n[nH]cc21 (stereo not shown) [Compound 949268] |  |  | pIC50 [1, 9]: 5.30 to 6.00; pIC50 [2, 10]: < 5.30 |
| CCC1(c2cccc(C(F)(F)F)c2)C2=C(CCN(c3cnn(C)c3)C2=O)Nc2n[nH]cc21 (stereo not shown) [Compound 949270] | ≥ 7.00 | 6.00 to 7.00 |  |
| CC[C@]1(c2cccc(C(F)(F)F)c2)C2=C(CCN(c3cnn(C)c3)C2=O)Nc2n[nH]cc21 [Compound 949271] | 6.00 to 7.00 | < 5.30 |  |
| CCC1(c2cccc(C(F)(F)F)c2)C2=C(CCN(c3ccccn3)C2=O)Nc2n[nH]cc21 (stereo not shown) [Compound 949310] | ≥ 7.00 | 6.00 to 7.00 | pIC50 [1, 5]: 6.00 to 7.00; pIC50 [2, 6]: < 5.30 |
| Cc1cnccc1[C@H]1CC[C@@]2(CC1)C1=C(CC(C)(C)CC1=O)Nc1n[nH]cc12 [Compound 949318] |  |  | pIC50 [1, 9]: 6.00 to 7.00; pIC50 [2, 10]: 6.00 to 7.00 |
| Cc1cnccc1[C@H]1CC[C@]2(CC1)C1=C(CC(C)(C)CC1=O)Nc1n[nH]cc12 [Compound 949319] |  |  | pIC50 [1, 9]: ≥ 7.00; pIC50 [2, 10]: ≥ 7.00 |
| CC1(C)CC(=O)C2=C(C1)Nc1n[nH]cc1[C@]21CC[C@@H](c2ccncc2)CC1 [Compound 949320] |  |  | pIC50 [1, 9]: 6.00 to 7.00; pIC50 [2, 10]: 5.30 to 6.00 |
| CC1(C)CC(=O)C2=C(C1)Nc1n[nH]cc1[C@]21CC[C@H](c2ccncc2)CC1 [Compound 949321] |  |  | pIC50 [1, 9]: ≥ 7.00; pIC50 [2, 10]: ≥ 7.00 |
| Cn1cc([C@H]2CC[C@@]3(CC2)C2=C(CC(C)(C)CC2=O)Nc2n[nH]cc23)cn1 [Compound 949322] |  |  | pIC50 [1, 9]: 6.00 to 7.00; pIC50 [2, 10]: 5.30 to 6.00 |
| Cn1cc([C@H]2CC[C@]3(CC2)C2=C(CC(C)(C)CC2=O)Nc2n[nH]cc23)cn1 [Compound 949323] | 5.30 to 6.00 | < 5.30 |  |
| CCC1(c2cccc(-c3ccncc3F)c2)C2=C(CC(C)(C)NC2=O)Nc2n[nH]c(Cl)c21 (stereo not shown) [Compound 949324] | ≥ 7.00 | ≥ 7.00 | pIC50 [1, 5]: 6.00 to 7.00; pIC50 [2, 6]: 5.30 to 6.00 |
| CC[C@]1(c2cccc(OC)c2)C2=C(CC(C)(C)NC2=O)Nc2n[nH]c(C)c21 [Compound 949328] | 5.30 to 6.00 | < 5.30 |  |
| CC[C@]1(c2cccc(-c3cn(C)nc3C)c2)C2=C(CC(C)(C)NC2=O)Nc2n[nH]c(Cl)c21 [Compound 949329] | 5.30 to 6.00 | < 5.30 |  |
| CCC1(c2cccc(-c3cn(C)nc3C)c2)C2=C(CC(C)(C)NC2=O)Nc2n[nH]c(Cl)c21 (stereo not shown) [Compound 949336] | ≥ 7.00 | ≥ 7.00 | pIC50 [1, 5]: ≥ 7.00; pIC50 [2, 6]: 6.00 to 7.00 |
| CC[C@@]1(c2cccc(OC)c2)C2=C(CC(C)(C)NC2=O)Nc2n[nH]c(C)c21 [Compound 949337] | 6.00 to 7.00 | 5.30 to 6.00 |  |
| CCC1(c2cccc(C(F)(F)F)c2)C2=C(CC(C)N(c3cnc(OC)nc3)C2=O)Nc2n[nH]cc21 (stereo not shown) [Compound 949351] | ≥ 7.00 | 6.00 to 7.00 |  |
| CCC1(c2cccc(C(F)(F)F)c2)C2=C(CC(C)N(c3cnc(OC)nc3)C2=O)Nc2n[nH]cc21 (stereo not shown) [Compound 949352] | ≥ 7.00 | ≥ 7.00 | pIC50 [1, 5]: 6.00 to 7.00; pIC50 [2, 6]: 5.30 to 6.00 |
| CC[C@@]1(c2cccc(C(F)(F)F)c2)C2=C(C[C@H](C)N(c3cnc(OC)nc3)C2=O)Nc2n[nH]cc21 [Compound 949354] | 6.00 to 7.00 | 5.30 to 6.00 |  |
| CCc1cccc(C2(CC)C3=C(CC(C)(C)CC3=O)Nc3n[nH]cc32)c1 (stereo not shown) [Compound 949391] |  |  | pIC50 [1, 9]: 5.30 to 6.00; pIC50 [2, 10]: < 5.30 |
| CC[C@@]1(c2cccc(-c3c(C)ccc4c(C)cccc34)c2)C2=C(CC(C)(C)NC2=O)Nc2n[nH]c(F)c21 [Compound 949392] | 5.30 to 6.00 | < 5.30 |  |
| CCC1(c2cccc(C3CCCC3)c2)C2=C(CC(C)(C)CC2=O)Nc2n[nH]cc21 (stereo not shown) [Compound 949397] |  |  | pIC50 [1, 5]: 6.00 to 7.00; pIC50 [2, 6]: 5.30 to 6.00 |
| CC[C@]1(c2cccc(C3CCCC3)c2)C2=C(CC(C)(C)CC2=O)Nc2n[nH]cc21 [Compound 949399] | 5.30 to 6.00 | < 5.30 |  |

Now from value to compound, other results behind:

| pIC50 [1, 7] | pIC50 [2, 8] | Compound | other results |
| --- | --- | --- | --- |
| < 5.30 | < 5.30 | CC[C@@]1(c2cccc(-c3cnn4ccncc34)c2)C2=C(CC(C)(C)NC2=O)Nc2n[nH]cc21 [Compound 949263] |  |
| < 5.30 | < 5.30 | CC[C@@]1(c2cccc(-c3cnn(-c4ccccn4)c3)c2)C2=C(CC(C)(C)NC2=O)Nc2n[nH]cc21 [Compound 949264] |  |
| ≥ 7.00 | 6.00 to 7.00 | CCC1(c2cccc(-c3cn(C)nc3C(F)(F)F)c2)C2=C(CC(C)(C)NC2=O)Nc2n[nH]cc21 (stereo not shown) [Compound 949266] |  |
| ≥ 7.00 | 6.00 to 7.00 | CC[C@]1(c2cccc(Oc3ncccn3)c2)C2=C(CC(C)(C)NC2=O)Nc2n[nH]cc21 [Compound 949330] |  |
| 5.30 to 6.00 | < 5.30 | CC[C@@]1(c2cccc(-c3cc(C)nnc3C)c2)C2=C(CC(C)(C)NC2=O)Nc2n[nH]cc21 [Compound 949334] |  |
| < 5.30 | < 5.30 | CC[C@@]1(c2cccc(Oc3ncccn3)c2)C2=C(CC(C)(C)NC2=O)Nc2n[nH]cc21 [Compound 949335] |  |
| 5.30 to 6.00 | < 5.30 | CC[C@@]1(c2cccc(-c3ccnc(C(F)F)c3)c2)C2=C(CC(C)(C)NC2=O)Nc2n[nH]cc21 [Compound 949388] |  |
| 5.30 to 6.00 | < 5.30 | CCC1(c2cccc(-c3cnn4cccnc34)c2)C2=C(CC(C)(C)NC2=O)Nc2n[nH]cc21 (stereo not shown) [Compound 949389] |  |
| 5.30 to 6.00 | < 5.30 | CCC1(c2cccc(-c3cnn(C4CC4(F)F)c3)c2)C2=C(CC(C)(C)NC2=O)Nc2n[nH]cc21 (stereo not shown) [Compound 949393] |  |
| ≥ 7.00 | 6.00 to 7.00 | CC[C@]1(c2cccc(-c3ccnn3C)c2)C2=C(CC3(CCS(=O)(=O)CC3)NC2=O)Nc2n[nH]cc21 [Compound 949394] |  |
| 5.30 to 6.00 | < 5.30 | CCC1(c2cccc(-c3cnn(C)c3F)c2)C2=C(CC(C)(C)NC2=O)Nc2n[nH]cc21 (stereo not shown) [Compound 949395] |  |
| < 5.30 | < 5.30 | CC[C@@]1(c2cccc(-c3ccnn3-c3ccc(F)cc3)c2)C2=C(CC(C)(C)NC2=O)Nc2n[nH]cc21 [Compound 949396] |  |
| ≥ 7.00 | 6.00 to 7.00 | CCC1(c2cccc(-c3c(C)cnc4ccccc34)c2)C2=C(CC(C)(C)NC2=O)Nc2n[nH]cc21 (stereo not shown) [Compound 949398] |  |
| 5.30 to 6.00 | < 5.30 | CC[C@@]1(c2cccc(-c3ccnn3C)c2)C2=C(CC3(CCS(=O)(=O)CC3)NC2=O)Nc2n[nH]cc21 [Compound 949400] |  |
| 6.00 to 7.00 | < 5.30 | CC[C@]1(c2cccc(-c3ccnc(C)c3)c2)C2=C(CC(C)(C)NC2=O)Nc2n[nH]c(Cl)c21 [Compound 949421] |  |
| ≥ 7.00 | ≥ 7.00 | CC[C@@]1(c2cccc(-c3ccnc(C)c3)c2)C2=C(CC(C)(C)NC2=O)Nc2n[nH]c(Cl)c21 [Compound 949422] | pIC50 [1, 5]: 6.00 to 7.00; pIC50 [2, 6]: 5.30 to 6.00 |
| < 5.30 | < 5.30 | CC[C@@]1(c2cccc(-c3cc(C4CCCC4)nn3C)c2)C2=C(CC(C)(C)NC2=O)Nc2n[nH]cc21 [Compound 949509] |  |
| < 5.30 | < 5.30 | CC[C@@]1(c2cccc(-c3cnn(CCN4CCCC4)c3)c2)C2=C(CC(C)(C)NC2=O)Nc2n[nH]cc21 [Compound 949510] |  |
| < 5.30 | < 5.30 | CC[C@@]1(c2cccc(-c3cnn(Cc4ccc(C(F)(F)F)cc4)c3)c2)C2=C(CC(C)(C)NC2=O)Nc2n[nH]cc21 [Compound 949511] |  |
| < 5.30 | < 5.30 | CC[C@@]1(c2cccc(-c3cnn(Cc4cccc(C(F)(F)F)c4)c3)c2)C2=C(CC(C)(C)NC2=O)Nc2n[nH]cc21 [Compound 949513] |  |
